Experiments:
Details in all cases: 72 h
Calu-3 [1] = assay: cell viability relative to DMSO; higher = less toxic
Caco-2 [2] = assay: as above
HepG2 [3] = assay: as above
Vero E6 [4] = assay: as above
U2OS [5] = assay: as above
Calu-3 [6] = assay: relative viability EC50 (midpoint between 100% and the lowest measured viability); higher = less toxic
Caco-2 [7] = assay: as above
HepG2 [8] = assay: as above
Vero E6 [9] = assay: as above
U2OS [10] = assay: as above
Calu-3 [11] = assay: drug sensitivity score (DSS) for viability; higher = more toxic; extreme values may be limits of the assay
Caco-2 [12] = assay: as above
HepG2 [13] = assay: as above
Vero E6 [14] = assay: as above
U2OS [15] = assay: as above

Structure (SMILES)	cell viability (Calu-3 [1]; 1 nM) [%]	cell viability (Calu-3 [1]; 10 nM) [%]	cell viability (Calu-3 [1]; 100 nM) [%]	cell viability (Calu-3 [1]; 1000 nM) [%]	cell viability (Calu-3 [1]; 10000 nM) [%]	cell viability (Caco-2 [2]; 1 nM) [%]	cell viability (Caco-2 [2]; 10 nM) [%]	cell viability (Caco-2 [2]; 100 nM) [%]	cell viability (Caco-2 [2]; 1000 nM) [%]	cell viability (Caco-2 [2]; 10000 nM) [%]	cell viability (HepG2 [3]; 1 nM) [%]	cell viability (HepG2 [3]; 10 nM) [%]	cell viability (HepG2 [3]; 100 nM) [%]	cell viability (HepG2 [3]; 1000 nM) [%]	cell viability (HepG2 [3]; 10000 nM) [%]	cell viability (Vero E6 [4]; 1 nM) [%]	cell viability (Vero E6 [4]; 10 nM) [%]	cell viability (Vero E6 [4]; 100 nM) [%]	cell viability (Vero E6 [4]; 1000 nM) [%]	cell viability (Vero E6 [4]; 10000 nM) [%]	cell viability (U2OS [5]; 1 nM) [%]	cell viability (U2OS [5]; 10 nM) [%]	cell viability (U2OS [5]; 100 nM) [%]	cell viability (U2OS [5]; 1000 nM) [%]	cell viability (U2OS [5]; 10000 nM) [%]	relative viability EC50 (Calu-3 [6]) [µM]	relative viability EC50 (Caco-2 [7]) [µM]	relative viability EC50 (HepG2 [8]) [µM]	relative viability EC50 (Vero E6 [9]) [µM]	relative viability EC50 (U2OS [10]) [µM]	drug sensitivity score (Calu-3 [11])	drug sensitivity score (Caco-2 [12])	drug sensitivity score (HepG2 [13])	drug sensitivity score (Vero E6 [14])	drug sensitivity score (U2OS [15])
C[C@@H](c1ncncc1F)[C@](O)(Cn1cncn1)c1ccc(F)cc1F [voriconazole]	92.4	97.5	92.4	99.8	110	101	92.5	102	85.6	110	100	106	86.9	107	122	98.8	101	97.8	108	105	103	101	97.6	97.4	109	> 10	> 10	> 10	> 10	> 10	0	0	0	0	0
C[C@]12CC[C@@H]3c4ccc(OS(=O)(=O)O)cc4CC[C@H]3[C@@H]1CCC2=O [estropipate]	99.1	99.1	99.3	111	103	102	96.7	112	109	93.4	111	110	103	103	97.4	99.5	95.2	102	84.8	101	93.4	95.6	95	98	108	> 10	> 10	> 10	> 10	> 10	0	0	0	0	0
N[C@@H](C(=O)O)c1nn[nH]n1 (racemic) [tetrazol-5-yl-glycine-(RS)]	112	109	105	95.2	89.3	97.2	95.6	104	98	90.6	91	107	101	96.6	108	95	104	90.2	98.3	107	104	98.5	103	93.7	104	> 10	> 10	> 10	> 10	> 10	0.1	0	0	0	0
